From patent publication US20110021543A1, “HETEROCYCLIC COMPOUNDS AND THEIR USE AS PESTICIDES” (priority 2007, published 2011)

Legend:
[1] = system: Rhipicephalus sanguineus (dog tick); assay: Activity in vitro against Rhipicephalus sanguineus (dog tick), adult tick contact test in 96-well plate; conditions: at 640 ppm, 10 minutes contact, incubated 7 days at 28° C. and 80% relative humidity
Description: 1. Activity In Vitro Against Rhipicephalus sanguineus (Dog Tick).
A clean adult tick population is used to seed a suitably formatted 96-well plate containing the test substances to be evaluated for antiparasitic activity. Each compound is tested by serial dilution in order to determine its minimal effective dose (MED). Ticks are left in contact with the test compound for 10 minutes and are then incubated at 28° C. and 80% relative humidity for 7 days, during which the test compound's effect is monitored. Acaricidal activity is confirmed if adult ticks are dead.

[2] = system: Ctenocephalides felis (cat flea); assay: Activity in vitro against Ctenocephalides felis (cat flea), artificial blood feeding system; conditions: at 100 ppm; adult fleas fed on treated blood for 24 hours
Description: 2. Activity In Vitro Against Ctenocephalides felis (Cat Flea). A mixed adult population of fleas is placed in a suitably formatted 96-well plate allowing fleas to access and feed on treated blood via an artificial feeding system. Each compound is tested by serial dilution in order to determine its MED. Fleas are fed on treated blood for 24 hours, after which the compound's effect is recorded. Insecticidal activity is determined on the basis of the number of dead fleas recovered from the feeding system.

Structure (SMILES): CC(O)(c1cn(-c2c(Cl)cc(C(F)(F)F)cc2Cl)c2cccnc12)C(F)(F)F (centres unmarked) [Compound 1.43, 2-[1-(2,6-Dichloro-4-trifluoromethyl-phenyl)-1H-pyrrolo[3,2-b]pyridin-3-yl]-1,1,1-trifluoro-propan-2-ol]
- efficacy (acaricidal activity, dead adult ticks) [1]: more than 80%
- efficacy (insecticidal activity, dead fleas) [2]: more than 80%
